Reference: patent US8642613B2, “Treatment for leukemia and idiopathic aplastic anemia” (Sphingomonas Research Partners, L.P., priority 2008, dated 2014)

Tested on: acute lymphocytic leukemia (ALL), Philadelphia chromosome positive, with bone marrow failure
Experiment: Rifampicin treatment of a single patient with relapsed acute lymphocytic leukemia and end stage bone marrow failure
Type: in vivo, human
Method: The single leukemia patient studied, and reported here, was a person who presented with acute lymphocytic leukemia (ALL), Philadelphia chromosome positive, who was converted to remission with a stem cell transplant from a matching sibling. Within one year, the leukemia reverted to an active form, and they were treated with all anti-leukemic agents known, and these included several experimental agents from MD Anderson Hospital in Houston.
They developed diabetes associated with steroids, and right maxillary sinus infection with a species of Mucorales. They underwent debridement of their sinus, with removal of bone and tissue up to the floor of the […] orbit. The sense of smell had been lost during the mucor infection. Their condition worsened in the Houston hospital. They developed bone marrow failure, and was transferred by air ambulance in a bed to their home in the Chicago area with instructions for terminal hospice care. They were bedridden, unable to sit up, and appeared moribund.
The laboratory findings at that time included:
The present inventor, who is a physician, is a cousin of the patient. After informed consent, which included a description of the experience of the inventor, the patient was started on rifampicin (rifampin) 600 mg daily not within 2½ hours of meals. This treatment was not part of any protocol, but was a private request to the inventor.

[1] = single ALL patient, rifampicin 600 mg daily
[2] = single ALL patient, rifampicin 600 mg daily, time after start of treatment

Rifampicin
white cell levels (mature leukocytes and lymphocytes) (approximately 5 weeks after treatment began, rifampicin 600 mg daily): continued at normal levels
platelet counts over time (FIG. 3) (patient presenting with acute lymphocytic leukemia treated with rifampicin): increase in platelet counts over time
white cell counts over time (FIG. 4) (same patient and time course as FIG. 3): increase in white cell counts
clinical condition (strength, sitting, standing, short walks) [1]: marked clinical improvement
platelet drop leading to temporary discontinuation (suspected platelet agglutination) [1]: transient drop in platelets
time until patient began to show bone marrow recovery [2]: ≤ 2 weeks
time until significant parameters of bone marrow remission had developed [2]: ≤ 6 weeks
platelets, level reached on treatment (single ALL patient, rifampicin 600 mg daily, 11K before treatment): 48 K
